# Test: Liquid chromatography mass spectrometry analysis of fingerprint sweat samples for Tuberculosis medication and metabolite
# Format: in vivo, human
# Settings: for percentage of fingerprint samples in which detected: 75 samples; for number of fingerprint samples in which detected (of 25 fingerprints): 5 subjects who had finished a course of Isoniazid at least 72 hours previously
# Experimental: All subjects from whom fingerprint samples were taken were human. Fingerprints were taken from the five fingers (i.e. the four fingers and the thumb) of each subject's right hand: • without the hand having been washed; or • after the hand has been washed with soap and water, and covered with a clean surgical glove for 10 minutes, without contacting any other surface.
# The chromatography paper with fingerprint samples thereon were placed in a 2 ml Eppendorf microcentrifuge tube, following which an extraction solution (1.5 ml of 10% dichloromethane in methanol) was added. The tube was then centrifuged for 2 min (at 9.5 centrifugal force). The solvent extract was evaporated to dryness under a stream of nitrogen at room temperature (20° C.) and reconstituted in 100 μl mobile phase solution (95:5 water/acetonitrile+0.1% formic acid+iosotopically labelled internal standards) before being vortexed and transferred to a 300 μl glass micro-insert vial, with 5 μl being injected onto an LC-MS/MS system.
# Chromatographic separation was performed on a Thermo Scientific™ Ultimate3000 UHPLC system equipped with a binary solvent manager, column manager and autosampler. The injection volume was 5 μL. Separation was performed on a Kinetex XB-C18 column (100×2.1 mm, 5 μm) operated at 30° C. at a flow rate of 0.25 ml/min. Mobile phase comprises 95% H2O (0.1% formic acid) and 5% acetonitrile (ACN) (0.1% formic acid).
# The prepared samples were introduced to a Thermo Orbitrap Q-Exactive Plus mass spectrometer using the standard ESI interface with a capillary temperature of 320° C. and spray voltage 3 kV. Positive mass spectra were acquired in full scan mode within a range of m/z 50-500 at a mass resolution of 70 000 at m/z 200.
# [1] = after washing hands using soap and water, same subjects as Example 1, isoniazid 300 mg (one 400 mg)
# [2] = after washing hands using soap and water, same subjects as Example 1
# [3] = hands not washed, approximately 3 hours after 300 mg isoniazid (one subject 400 mg), 15 subjects
# [4] = hands not washed, approximately 3 hours after 300 mg isoniazid (one subject 400 mg)
# [5] = hands washed using soap and water
# [6] = sample obtained 2 hours after the subject had taken Isoniazid
# [7] = sample obtained 72 hours after the subject had taken Isoniazid
structure (smiles),measurement,setting,value
NNC(=O)c1ccncc1 [Isoniazid],number of fingerprint samples in which detected (out of the 75 fingerprint samples),[1],40
same,percentage of fingerprint samples in which detected,[2],53%
same,number of fingerprint samples in which detected (of 25 fingerprints),hands not washed,0
same,number of fingerprint samples in which detected (out of the 75 fingerprint samples),[3],51
same,percentage of fingerprint samples in which detected,[4],68%
same,number of fingerprint samples in which detected (of 25 fingerprints),[5],0
same,presence in fingerprint sweat sample,[6],shows the presence
same,presence in fingerprint sweat sample,[7],does not show the presence
CC(=O)NNC(=O)c1ccncc1 [Acetylisoniazid],number of fingerprint samples in which detected (out of the 75 fingerprint samples),[1],72
same,percentage of fingerprint samples in which detected,[2],96%
same,number of fingerprint samples in which detected (of 25 fingerprints),hands not washed,0
same,number of fingerprint samples in which detected (out of the 75 fingerprint samples),[3],73
same,percentage of fingerprint samples in which detected,[4],97%
same,number of fingerprint samples in which detected (of 25 fingerprints),[5],0
same,presence in fingerprint sweat sample,[6],shows the presence
same,presence in fingerprint sweat sample,[7],does not show the presence
"NC(=O)c1cnccn1 [pyrazinamide, Pyrazinamide]",presence in fingerprint sample,"approximately 3 hours after 1,000 mg pyrazinamide, hands washed",presence of pyrazinamide is evidenced

# Reference: patent publication US20200319201A1, “METHODS FOR MONITORING TUBERCULOSIS MEDICATION” (priority 2017, published 2020)
